Test results published in publication PMC6961518, “Fe-HBED Analogs: A Promising Class of Iron-Chelate Contrast Agents for Magnetic Resonance Imaging” (Contrast Media & Molecular Imaging, 2019).
Read-outs that look alike come from different tables or passages of the source.

Legend:
[1] = design: method as in PMID 16230904; settings: in water at 1.5 T; cited from earlier work
bovine serum albumin = bovine serum albumin (Bos taurus, UniProt P02769); test: Serum protein binding assay (ultrafiltration, UV-Vis); format: in vitro ADME; settings: bovine serum albumin 8 wt.% in PBS, 1 hour at room temperature, 30 kDa filter
Chain of bovine serum albumin (P02769 25-607): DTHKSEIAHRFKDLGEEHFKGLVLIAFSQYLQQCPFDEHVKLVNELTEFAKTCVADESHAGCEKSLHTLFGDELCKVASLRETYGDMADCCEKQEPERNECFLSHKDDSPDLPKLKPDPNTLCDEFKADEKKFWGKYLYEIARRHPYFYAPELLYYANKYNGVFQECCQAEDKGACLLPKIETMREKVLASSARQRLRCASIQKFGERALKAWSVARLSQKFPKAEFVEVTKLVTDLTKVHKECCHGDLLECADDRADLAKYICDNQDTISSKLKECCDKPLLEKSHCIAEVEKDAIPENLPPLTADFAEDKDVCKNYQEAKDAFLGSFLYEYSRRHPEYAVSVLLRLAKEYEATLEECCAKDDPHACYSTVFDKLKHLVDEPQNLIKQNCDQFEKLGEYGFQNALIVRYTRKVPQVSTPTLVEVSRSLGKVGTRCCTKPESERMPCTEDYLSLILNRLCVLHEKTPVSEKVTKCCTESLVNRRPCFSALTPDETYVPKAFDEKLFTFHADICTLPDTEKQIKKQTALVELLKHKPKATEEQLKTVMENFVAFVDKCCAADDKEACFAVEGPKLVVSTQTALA
Description: A 5 mM stock solution of the iron chelate complex under investigation was prepared in PBS, and the UV/visible spectrum of the solution was acquired to determine the wavelength of the absorbance maximum (λmax). An aliquot of the stock solution (500 μL) was added to a PBS solution (2 mL) containing bovine serum albumin (8 wt.%). A control sample was prepared by diluting a second aliquot of the stock solution (500 μL) with PBS (2 mL). The samples were vortexed briefly and then allowed to stand for 1 hour at room temperature. At the stipulated time, the resulting solutions were transferred to Amicon Ultra filters (4 mL, MWCO = 30 kDa). The solutions were centrifuged (3000 rcf, 15 min), and the permeate was taken directly for UV-Vis measurement. The wavelength and intensity of λmax in the visible region for the solution were recorded. The relative amount of free and protein-bound agent was calculated from the λmax intensity ratio of the assay to control samples.

[2] = Relaxivity determination (r1, r2) on Bruker minispec mq60; format: physicochemical; settings: PBS, 60 MHz, 40°C
Description: A stock solution having a concentration of 1 mM of the CA of interest was prepared in phosphate-buffered saline (PBS), and the iron concentration was verified by elemental analysis. Separate 0.75 mM, 0.50 mM, and 0.25 mM samples were prepared from the stock by dilution in PBS, and T1 and T2 relaxations times were recorded in triplicate for each sample on a Bruker minispec mq60 instrument (60 MHz, 40°C). The relaxivities (r1 and r2) were obtained as the gradient of 1/Tx (x = 1, 2) plotted against Fe chelate concentration following linear least squares regression analysis.

[3] = cited from earlier work
[4] = Ascorbic acid oxidation assay (redox stability); settings: iron chelate 20 μM (30 mol%), ascorbic acid 67 μM in PBS, 45 minutes, air oxidation
Description: The UV-Vis spectrum of an ascorbic acid solution (67 μM and 12 μg/mL) in PBS (3 mL) was recorded. The absorbance intensity at λmax = 265 nm was observed. An aliquot (30 μL) of the iron chelate of ethylenediaminetetraacetic acid (Fe-EDTA) in PBS (2 mM, 0.7 mg/mL) was added to afford a catalytic quantity of Fe-EDTA (20 μM, 30 mol%) with respect to ascorbic acid. The absorbance intensity (λmax = 265 nm) was recorded at intervals of 1 minute for a period of 45 minutes and the data normalized to the t0 absorbance. The experiment was then repeated identically using a solution of the iron chelate complex under investigation (20 μM, 30 mol%), and the results were plotted as a function of the percent initial ascorbic acid signal versus elapsed time (min).

Q: Which r1 [1] does the source give for `CNC[C@H](O)[C@@H](O)[C@H](O)[C@H](O)CO.CNC[C@H](O)[C@@H](O)[C@H](O)[C@H](O)CO.O=C([O-])CN(CCN(CC(=O)[O-])CC(=O)O)CCN(CC(=O)[O-])CC(=O)O.[Gd+3]` [Gd-1, Gadopentetate dimeglumine] here?
A: 3.3 mM⁻¹ s⁻¹

Q: For `O=P1(O)CN2CCN3Cc4cccc(CO)c4[O][Fe]([O]c4c(CO)cccc4C2)([O]1)[O]P(=O)(O)C3` [Fe-4], which Protein binding (bovine serum albumin) is on record?
A: 20%

Q: What about the r1 [2] of the same molecule?
A: 0.9 mM⁻¹ s⁻¹

Q: Which “log K (Fe[III] binding)” value [3] does the source give for `O=C(O)CN(CCN(CC(=O)O)Cc1ccccc1O)Cc1ccccc1O` [HBED, N,N′-bis(2-hydroxyphenyl)ethylenediamine-N,N′-diacetic acid] here?
A: 39.7

Q: For `O=C1CN2CCN3CC(=O)[O][Fe]([O]1)([O]c1ccccc1C2)[O]c1ccccc1C3` [Fe-1], which Protein binding (bovine serum albumin) is on record?
A: 33%

Q: And the r1 [2]?
A: 0.49 mM⁻¹ s⁻¹

Q: With `O=P1(O)CN2CCN3Cc4ccccc4[O][Fe]([O]c4ccccc4C2)([O]1)[O]P(=O)(O)C3` [Fe-3] as the molecule, how does the Protein binding (bovine serum albumin) read?
A: 49%

Q: What about the “pseudo-first-rate time constant for ascorbic acid consumption, relative to Fe-EDTA” value [4] of the same molecule?
A: < 0.5%

Q: And the r1 [2]?
A: 1.3 mM⁻¹ s⁻¹

Q: Which results are given for `O=C1CN2CCN3CC(=O)[O][Fe]([O]1)([O]c1ccc(S(=O)(=O)O)cc1C2)[O]c1ccc(S(=O)(=O)O)cc1C3` [Fe-2]?
A: pseudo-first-rate time constant for ascorbic acid consumption, relative to Fe-EDTA [4]: < 0.5%; r1 [2]: 0.9 mM⁻¹ s⁻¹
